# Several values for one entry are separate records, joined by “and”; a condition that tells them apart may be missing. Equal values may be shown once.
# What was measured:
# [1] = ABPM study, adverse events; type: in vivo, human; conditions: 75 mg, 28 days
# Procedure: Safety was evaluated by assessment of clinical laboratory tests, physical examinations, and vital signs measurements from office visits at various time points during the study, and by the documentation of AEs.
# Safety Set (SAF): All subjects who received at least one dose of double-blind study treatment were included in the SAF. Subjects were included in the treatment group corresponding to the Study Treatment that was actually received. This was the population used to summarize safety analyses collected during clinic visits and correspondence with site staff; summarization of baseline/demographic characteristics also presented for the SAF.
# [2] = Phase 1 ABPM study, ambulatory blood pressure and heart rate in OAB subjects, 28 days; type: in vivo, human
# Procedure: The objectives and endpoints were as described below. “Mean daytime” ABPM endpoints are calculated as the mean of all valid ABPM readings while the subject was awake during the 24-hour monitoring session. “Mean 24 hr” ABPM endpoints are calculated as the mean of all valid ABPM readings during the 24 hr monitoring session.
# For the analysis of the ABPM endpoints (CFB to Day 29 of systolic and diastolic blood pressure, and heart rate), a generalized linear model (GLM) was used. […] The analysis model for each efficacy endpoint included terms for treatment, age group (≤55 vs >55 years), sex (Male vs Female), and pre-existing hypertension (Yes vs No), and baseline score.
# Primary inferences were drawn from treatment differences for the CFB at Day 29 from the GLM. […] To test the primary hypothesis in Section 85, the upper limit of the two-sided 90% confidence interval was compared to 3.5, and the null hypothesis was rejected if the upper limit was strictly less than 3.5.
# The 24-mean ambulatory baseline for systolic and diastolic blood pressure, and heart rate was the arithmetic mean of all valid measurements between the time of cuff-fitting on Day −1 to cuff-removal on Day 1. The 24-hour mean at Day 29 was arithmetic mean of all valid measurements between the time of cuff-fitting on Day 28 to cuff removal on Day 29.
# The maximum SBP, DBP and HR in the tmax window at baseline was the maximum of the hourly means of valid measurements from 0.5 to 6.5 hours after the time of cuff fitting on Day −1. On Day 28, the maximum SBP, DBP and HR in the tmax window was the maximum of the hourly means of valid measurements from 0.5 to 6.5 hours after dose.
# The mean daytime ambulatory baseline for systolic and diastolic blood pressure, and heart rate was the arithmetic mean of all measurements taken during the time interval in which the subject was awake. The same definition was applied to Day 29 measurements.
# [3] = vibegron 75 mg/day, 4 weeks, full analysis set
smiles,measurement,setting,value
"O=C(Nc1ccc(C[C@@H]2CC[C@H]([C@H](O)c3ccccc3)N2)cc1)[C@@H]1CCc2nccc(=O)n21 [Vibegron, (6S)-N-[4-[[(2S,5R)−5-[(R)-hydroxy(phenyl)methyl]pyrrolidin−2-yl]methyl]phenyl]−4-oxo−7,8-dihydro−6H-pyrrolo[1,2-a]pyrimidine−6-carboxamide]","Discontinued the study: Adverse Event, subjects n",[1]; Randomized N = 106,2
same,AECIs,[1]; Safety N = 106,8 (7.5) n (%)
same,AEs Leading to Treatment Discontinuation,[1]; Safety N = 106,3 (2.8) n (%)
same,Adverse event: Blood pressure increased,[1]; Safety N = 106,0 n (%)
same,Adverse event: Constipation,[1]; Safety N = 106,2 (1.9) n (%)
same,Adverse event: Diarrhea,[1]; Safety N = 106,3 (2.8) n (%)
same,Adverse event: Dry mouth,[1]; Safety N = 106,3 (2.8) n (%)
same,Adverse event: Fatigue,[1]; Safety N = 106,3 (2.8) n (%)
same,Adverse event: Haematuria,[1]; Safety N = 106,3 (2.8) n (%)
same,Adverse event: Headache,[1]; Safety N = 106,4 (3.8) n (%)
same,Adverse event: Hypertension,[1]; Safety N = 106,5 (4.7) n (%)
same,Adverse event: Hypotension,[1]; Safety N = 106,1 (0.9) n (%)
same,Adverse event: Increased residual urine,[1]; Safety N = 106,0 n (%)
same,Adverse event: Nasopharyngitis,[1]; Safety N = 106,3 (2.8) n (%)
same,Adverse event: Nausea,[1]; Safety N = 106,3 (2.8) n (%)
same,Adverse event: Tachycardia,[1]; Safety N = 106,0 n (%)
same,Adverse event: Upper respiratory tract infection,[1]; Safety N = 106,5 (4.7) n (%)
same,Adverse event: Urinary retention,[1]; Safety N = 106,1 (0.9) n (%)
same,Adverse event: Urinary tract infection,[1]; Safety N = 106,3 (2.8) n (%)
same,Fatal adverse event,[1]; Safety N = 106,0 n (%)
same,Serious adverse event (SAE),[1]; Safety N = 106,1 (0.9) n (%)
same,Treatment emergent Adverse event (AE),[1]; Safety N = 106,49 (46.2) n (%)
same,Treatment-related AECIs,[1]; Safety N = 106,3 (2.8) n (%)
same,Treatment-related SAE by the investigator,[1]; Safety N = 106,0 n (%)
same,"ABPM Max (0.5-6.5 h) DBP Change from Baseline to Day 28, LSMean","[2]; 75 mg, FAS",0.63 mmHg
same,"ABPM Max (0.5-6.5 h) DBP Change from Baseline to Day 28, Treatment Difference Vibegron-Placebo","[2]; 75 mg, FAS",1.16 mmHg
same,"ABPM Max (0.5-6.5 h) HR Change from Baseline to Day 28, LSMean","[2]; 75 mg, FAS",1.76 bpm
same,"ABPM Max (0.5-6.5 h) HR Change from Baseline to Day 28, Treatment Difference Vibegron-Placebo","[2]; 75 mg, FAS",1.48 bpm
same,"ABPM Max (0.5-6.5 h) SBP Change from Baseline to Day 28, LSMean","[2]; 75 mg, FAS",1.96 mmHg
same,"ABPM Max (0.5-6.5 h) SBP Change from Baseline to Day 28, Treatment Difference Vibegron-Placebo","[2]; 75 mg, FAS",1.67 mmHg
same,"ABPM Mean 24 H DBP Change from Baseline to Day 28, LSMean","[2]; 75 mg, FAS",0.51 mmHg
same,"ABPM Mean 24 H DBP Change from Baseline to Day 28, Treatment Difference Vibegron-Placebo","[2]; 75 mg, FAS",−0.19 mmHg
same,"ABPM Mean 24 H HR Change from Baseline to Day 28, LSMean","[2]; 75 mg, FAS",0.80 bpm
same,"ABPM Mean 24 H HR Change from Baseline to Day 28, Treatment Difference Vibegron-Placebo","[2]; 75 mg, FAS",0.96 bpm
same,"ABPM Mean 24 H SBP Change from Baseline to Day 28, LSMean","[2]; 75 mg, FAS",0.60 mmHg
same,"ABPM Mean 24 H SBP Change from Baseline to Day 28, Treatment Difference Vibegron-Placebo","[2]; 75 mg, FAS",0.57 mmHg
same,"ABPM Mean Daytime DBP Change from Baseline to Day 28, LSMean","[2]; 75 mg, FAS",0.50 mmHg
same,"ABPM Mean Daytime DBP Change from Baseline to Day 28, Treatment Difference Vibegron-Placebo","[2]; 75 mg, FAS",−0.04 mmHg
same,"ABPM Mean Daytime HR Change from Baseline to Day 28, LSMean","[2]; 75 mg, FAS",1.08 bpm
same,"ABPM Mean Daytime HR Change from Baseline to Day 28, Treatment Difference Vibegron-Placebo","[2]; 75 mg, FAS",0.88 bpm
same,"Mean Daytime ABPM SBP Change from Baseline to Day 28, LSMean","[2]; 75 mg, FAS",0.82 mm Hg
same,"Mean Daytime ABPM SBP Change from Baseline to Day 28, Treatment Difference Vibegron-Placebo","[2]; 75 mg, FAS",0.81 mm Hg
same,"Change from Baseline to Day 28 for Maximum (0.5 to 6.5 hrs) ABPM SBP, LSMean","[2]; 75 mg, PPS",1.0 mm Hg
same,"Change from Baseline to Day 28 for Maximum (0.5 to 6.5 hrs) ABPM SBP, Treatment Difference Vibegron-Placebo","[2]; 75 mg, PPS",1.05 mm Hg
same,"Mean Daytime ABPM SBP Change from Baseline to Day 28, LSMean","[2]; 75 mg, PPS",0.19 mm Hg
same,"Mean Daytime ABPM SBP Change from Baseline to Day 28, Treatment Difference Vibegron-Placebo","[2]; 75 mg, PPS",0.41 mm Hg
same,"ABPM DBP Day 28 change from baseline ≥10 mmHg, subjects","[2]; Maximum (0.5-6.5 h), FAS",9 (9.8) n (%)
same,"ABPM HR Day 28 change from baseline ≥10 bpm, subjects","[2]; Maximum (0.5-6.5 h), FAS",20 (21.7) n (%)
same,"ABPM SBP Day 28 change from baseline ≥15 mmHg, subjects","[2]; Maximum (0.5-6.5 h), FAS",6 (6.5) n (%)
same,"ABPM DBP Day 28 change from baseline ≥10 mmHg, subjects","[2]; Mean 24-hour, FAS",1 (1.0) n (%)
same,"ABPM HR Day 28 change from baseline ≥10 bpm, subjects","[2]; Mean 24-hour, FAS",3 (3.1) n (%)
same,"ABPM SBP Day 28 change from baseline ≥15 mmHg, subjects","[2]; Mean 24-hour, FAS",2 (2.1) n (%)
same,"ABPM DBP Day 28 change from baseline ≥10 mmHg, subjects","[2]; Mean Daytime, FAS",2 (2.1) n (%)
same,"ABPM HR Day 28 change from baseline ≥10 bpm, subjects","[2]; Mean Daytime, FAS",3 (3.1) n (%)
same,"ABPM SBP Day 28 change from baseline ≥15 mmHg, subjects","[2]; Mean Daytime, FAS",2 (2.1) n (%)
same,effects on blood pressure (overall conclusion of ABPM study),"[2]; vibegron 75 mg, 28 days",no clinically relevant effects on blood pressure
same,"mean change of daytime ambulatory systolic blood pressure from baseline, difference from placebo (primary endpoint)","[2]; vibegron 75 mg, 28 days",less than 1 mm Hg
same,mean change from baseline in daytime ambulatory systolic blood pressure,"[2]; vibegron 75 mg/day, 4-week treatment, full analysis set",0.89 mmHg
same,"mean change of 24-hour ambulatory diastolic blood pressure from baseline, lower than placebo by","[2]; vibegron 75 mg/day, 4 weeks",0.19 mmHg
same,mean change of 24-hour ambulatory heart rate from baseline,"[2]; vibegron 75 mg/day, 4 weeks",about 0.80
same,"mean change of 24-hour ambulatory heart rate from baseline, higher than placebo by","[2]; vibegron 75 mg/day, 4 weeks",0.96 bpm
same,"mean change of 24-hour ambulatory systolic blood pressure from baseline, higher than placebo by","[2]; vibegron 75 mg/day, 4 weeks",0.57 mmHg
same,"mean change of daytime ambulatory diastolic blood pressure from baseline, lower than placebo by","[2]; vibegron 75 mg/day, 4 weeks",0.04 mmHg
same,mean change of daytime ambulatory heart rate from baseline,"[2]; vibegron 75 mg/day, 4 weeks",about 1.08 bpm
same,"mean change of daytime ambulatory heart rate from baseline, higher than placebo by","[2]; vibegron 75 mg/day, 4 weeks",0.88 bpm
same,mean increase in 24-hour ambulatory diastolic blood pressure from baseline,"[2]; vibegron 75 mg/day, 4 weeks",0.51 mmHg
same,mean increase in 24-hour ambulatory systolic blood pressure from baseline,"[2]; vibegron 75 mg/day, 4 weeks",0.61 mmHg and 0.60 mmHg
same,"mean change of daytime ambulatory systolic blood pressure from baseline, higher than placebo by",[2]; [3],0.81 mmHg
same,mean daytime ambulatory systolic upper bound of the 90% confidence interval (Table 103),[2]; [3],1.11 mm Hg
same,"mean daytime ambulatory systolic blood pressure, upper bound of 90% confidence interval of difference from placebo","[2]; vibegron 75 mg/day, 4 weeks, full analysis set (Table 101)",2.49 mm Hg
same,"mean change of daytime ambulatory systolic blood pressure from baseline, higher than placebo by","[2]; vibegron 75 mg/day, 4 weeks, per protocol set",0.41 mmHg
same,"mean daytime ambulatory systolic blood pressure, upper bound of 90% confidence interval of difference from placebo","[2]; vibegron 75 mg/day, 4 weeks, per protocol set (Table 102)",2 mm Hg
